From patent publication US12043600B2, “Microbiocidal compounds” (SYNGENTA CROP PROTECTION AG, priority 2018, dated 2024)

Legend:
[1] = tested on: Botryotinia fuckeliana (Botrytis cinerea); experiment: Botryotinia fuckeliana (Botrytis cinerea)/Liquid Culture (Gray Mould); assay type: cell-based; conditions: liquid culture, compared to untreated control
Experimental: Conidia of the fungus from cryogenic storage are directly mixed into nutrient broth (Vogels broth). After placing a (DMSO) solution of test compound into a microtiter plate (96-well format), the nutrient broth containing the fungal spores is added.

[2] = tested on: Glomerella lagenarium (Colletotrichum lagenarium); experiment: Glomerella lagenarium (Colletotrichum lagenarium)/Liquid Culture (Anthracnose); assay type: cell-based; conditions: Colletotrichum orbiculare, liquid culture, compared to untreated control
[3] = tested on: Phaeosphaeria nodorum (Septoria nodorum); experiment: Phaeosphaeria nodorum (Septoria nodorum)/Wheat/Leaf Disc Preventative (Glume Blotch); assay type: in vivo; conditions: Parastagonospora nodorum, foliar, wheat leaf disc preventative, compared to untreated control
Procedure, shortened: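 Preventative test: compound spray first, then spore inoculation after 2 days on cv. Kanzler wheat leaf segments. Incubation in a climate cabinet at 20 °C and 75% rh under a 12 h light/12 h dark cycle. Activity rated as % control relative to untreated discs at 5–7 days post-application.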

[4] = tested on: Monographella nivalis (Microdochium nivale); experiment: Monographella nivalis (Microdochium nivale)/Liquid Culture (Foot Rot Cereals); assay type: cell-based; conditions: liquid culture, compared to untreated control
Procedure, shortened: (§1)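 PDB + cryo-stored conidia; compound in DMSO pre-plated, spore broth added on top.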

[5] = tested on: Mycosphaerella arachidis (Cercospora arachidicola); experiment: Mycosphaerella arachidis (Cercospora arachidicola)/Liquid Culture (Early Leaf Spot); assay type: cell-based; conditions: liquid culture, compared to untreated control
Procedure, shortened: as §1

[6] = tested on: Phytophthora infestans; experiment: whole plant or invertebrate; assay type: in vivo; conditions: in Solanum lycopersicum, foliar, read-out: control of Phytophthora infestans
[7] = tested on: Plasmopara viticola; experiment: whole plant or invertebrate; assay type: in vivo; conditions: foliar, read-out: control of Plasmopara viticola
[8] = tested on: Puccinia recondita f. sp. tritici; experiment: Puccinia recondita f. sp. tritici/Wheat/Leaf Disc Curative (Brown Rust); assay type: in vivo; conditions: foliar, wheat leaf disc curative, compared to untreated control
Procedure, shortened: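 Formulated compound, diluted in water, is applied to inoculated wheat cv. Kanzler leaf segments on agar one day post-inoculation (pre-incubation dark, 19° C, 75% rh). After 6-8 days at 19° C, 75% rh and 12 h/12 h light, activity is rated as percent disease control relative to untreated segments.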

[9] = tested on: Puccinia recondita f. sp. tritici; experiment: Puccinia recondita f. sp. tritici/Wheat/Leaf Disc Preventative (Brown Rust); assay type: in vivo; conditions: foliar, 200 ppm, wheat leaf disc preventative, compared to untreated control, read-out: control of Puccinia recondita f. sp. tritici
[10] = tested on: Magnaporthe grisea (Pyricularia oryzae); experiment: whole plant or invertebrate; assay type: in vivo; conditions: foliar, read-out: control of Magnaporthe grisea
[11] = tested on: Thanatephorus cucumeris (Rhizoctonia solani); experiment: Thanatephorus cucumeris (Rhizoctonia solani)/Liquid Culture (Foot Rot, Damping-Off); assay type: cell-based; conditions: liquid culture, compared to untreated control
Experimental: Mycelia fragments of a newly grown liquid culture of the fungus are directly mixed into nutrient broth (PDB potato dextrose broth). After placing a (DMSO) solution of the test compounds into a microtiter plate (96-well format), the nutrient broth containing the fungal material is added.

[12] = tested on: Mycosphaerella graminicola (Septoria tritici); experiment: Mycosphaerella graminicola (Septoria tritici)/Liquid Culture (Septoria Blotch); assay type: cell-based; conditions: Zymoseptoria tritici; 20 ppm; liquid culture; compared to untreated control
Procedure, shortened: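 Results given as % disease control: test compound in DMSO was placed in wells first, then potato dextrose broth carrying cryostored fungal conidia was added.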

[13] = tested on: Blumeria graminis f. sp. tritici (Erysiphe graminis f. sp. tritici); experiment: Blumeria graminis f. sp. tritici/Wheat/Leaf Disc Preventative (Powdery Mildew on Wheat); assay type: in vivo; conditions: foliar, wheat leaf disc preventative, compared to untreated control
Procedure, shortened: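 Preventative leaf-disc test: percent disease control versus untreated leaf segments read 6-8 days post-application. Compound spray applied to wheat cv. Kanzler segments on agar one day before shaking infected plants over them; incubation at 20° C and 60% rh, 24 h darkness then 12 h light/12 h dark cycles.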

[14] = tested on: Phakopsora pachyrhizi; experiment: Phakopsora pachyrhizi/Soybean/Preventative (Soybean Rust); assay type: in vivo; conditions: foliar, 288 h, 200 ppm, soybean leaf disc preventative, compared to untreated control, read-out: control of Phakopsora pachyrhizi

CO/C=C(\Oc1cc(-n2ccc(C(C)C)n2)c(OC)cc1C)C(=O)OC [Compound E-31, methyl (Z)-2-[5-(3-isopropylpyrazol-1-yl)-4-methoxy-2-methyl-phenoxy]-3-methoxy-prop-2-enoate]
≥ 80%: inhibition of growth at 20 ppm [1] | inhibition of growth at 20 ppm [2] | pest or weed control at 200 ppm [3] | inhibition of growth at 20 ppm [4] | inhibition of growth at 20 ppm [5] | pest or weed control at 200 ppm [6] | pest or weed control at 200 ppm [7] | pest or weed control at 200 ppm [8] | pest or weed control at 200 ppm [9] | pest or weed control at 200 ppm [10] | inhibition of growth at 20 ppm [11] | inhibition of growth at 20 ppm [12]

CO/C=C(\Oc1cc(C)cc(-n2ccc(C(C)C)n2)c1)C(=O)OC [Compound E-35, methyl (Z)-2-[3-(3-isopropylpyrazol-1-yl)-5-methyl-phenoxy]-3-methoxy-prop-2-enoate]
≥ 80%: inhibition of growth at 20 ppm [1] | inhibition of growth at 20 ppm [2] | pest or weed control at 200 ppm [13] | inhibition of growth at 20 ppm [4] | inhibition of growth at 20 ppm [5] | pest or weed control at 200 ppm [6] | pest or weed control at 200 ppm [7] | pest or weed control at 200 ppm [8] | pest or weed control at 200 ppm [9] | pest or weed control at 200 ppm [10] | inhibition of growth at 20 ppm [11] | inhibition of growth at 20 ppm [12]
≥ 50%: pest or weed control at 200 ppm [14]

C/C=C(\C)c1ccn(-c2ccc(C)c(O/C(=C\OC)C(=O)OC)c2)n1 [Compound E-43, methyl (Z)-3-methoxy-2-[2-methyl-5-[3-[(E)-1-methylprop-1-enyl]pyrazol-1-yl]phenoxy]prop-2-enoate]
≥ 80%: inhibition of growth at 20 ppm [1] | inhibition of growth at 20 ppm [2] | inhibition of growth at 20 ppm [4] | inhibition of growth at 20 ppm [5] | pest or weed control at 200 ppm [6] | pest or weed control at 200 ppm [7] | pest or weed control at 200 ppm [8] | pest or weed control at 200 ppm [9] | pest or weed control at 200 ppm [10] | inhibition of growth at 20 ppm [11] | inhibition of growth at 20 ppm [12]
115 to 118 °C: melting point

C#Cc1cnn(-c2ccc(C)c(O/C(=C\OC)C(=O)OC)c2)c1 [Compound E-48, methyl (Z)-2-[5-(4-ethynylpyrazol-1-yl)-2-methyl-phenoxy]-3-methoxy-prop-2-enoate]
≥ 80%: inhibition of growth at 20 ppm [1] | inhibition of growth at 20 ppm [2] | pest or weed control at 200 ppm [13] | pest or weed control at 200 ppm [3] | inhibition of growth at 20 ppm [4] | inhibition of growth at 20 ppm [5] | pest or weed control at 200 ppm [6] | pest or weed control at 200 ppm [7] | pest or weed control at 200 ppm [8] | pest or weed control at 200 ppm [9] | inhibition of growth at 20 ppm [11] | inhibition of growth at 20 ppm [12]

CO/C=C(\Oc1cc(-n2cc(C3CC3)cn2)ccc1C)C(=O)OC [Compound E-50, methyl (Z)-2-[5-(4-cyclopropylpyrazol-1-yl)-2-methyl-phenoxy]-3-methoxy-prop-2-enoate]
≥ 50%: pest or weed control at 200 ppm [14]
≥ 80%: inhibition of growth at 20 ppm [1] | inhibition of growth at 20 ppm [2] | pest or weed control at 200 ppm [13] | pest or weed control at 200 ppm [3] | inhibition of growth at 20 ppm [4] | inhibition of growth at 20 ppm [5] | pest or weed control at 200 ppm [6] | pest or weed control at 200 ppm [7] | pest or weed control at 200 ppm [9] | pest or weed control at 200 ppm [10] | inhibition of growth at 20 ppm [11] | inhibition of growth at 20 ppm [12]

CO/C=C(\Oc1cc(-n2cc(C)cn2)ccc1C)C(=O)OC [Compound E-59, methyl (Z)-3-methoxy-2-[2-methyl-5-(4-methylpyrazol-1-yl)phenoxy]prop-2-enoate]
≥ 50%: pest or weed control at 200 ppm [14]
≥ 80%: inhibition of growth at 20 ppm [1] | inhibition of growth at 20 ppm [2] | pest or weed control at 200 ppm [13] | pest or weed control at 200 ppm [3] | inhibition of growth at 20 ppm [4] | inhibition of growth at 20 ppm [5] | pest or weed control at 200 ppm [6] | pest or weed control at 200 ppm [7] | pest or weed control at 200 ppm [9] | pest or weed control at 200 ppm [10] | inhibition of growth at 20 ppm [11] | inhibition of growth at 20 ppm [12]
